Test results reported in PMC11558128 (Advanced Science, 2024).
Positions count from the first letter of the chain named. Positions of bridges follow the written chain, without caps; N, C: chain ends. Residues, ends and D or L forms follow the SMILES beside them.

Tests used:
Test in all cases: cell-based
rKv4.3 = target: T1, rKv4.3 (Rattus norvegicus, UniProt Q62897); conditions: whole-cell patch clamp, HEK293T; held at -80 mV, step to 0 mV; mean ± S.E.M., n = 3-8; SEM
T1 construct: expressed in transfected cells; host or cells: HEK293T
T1 sequence (Q62897 1-655): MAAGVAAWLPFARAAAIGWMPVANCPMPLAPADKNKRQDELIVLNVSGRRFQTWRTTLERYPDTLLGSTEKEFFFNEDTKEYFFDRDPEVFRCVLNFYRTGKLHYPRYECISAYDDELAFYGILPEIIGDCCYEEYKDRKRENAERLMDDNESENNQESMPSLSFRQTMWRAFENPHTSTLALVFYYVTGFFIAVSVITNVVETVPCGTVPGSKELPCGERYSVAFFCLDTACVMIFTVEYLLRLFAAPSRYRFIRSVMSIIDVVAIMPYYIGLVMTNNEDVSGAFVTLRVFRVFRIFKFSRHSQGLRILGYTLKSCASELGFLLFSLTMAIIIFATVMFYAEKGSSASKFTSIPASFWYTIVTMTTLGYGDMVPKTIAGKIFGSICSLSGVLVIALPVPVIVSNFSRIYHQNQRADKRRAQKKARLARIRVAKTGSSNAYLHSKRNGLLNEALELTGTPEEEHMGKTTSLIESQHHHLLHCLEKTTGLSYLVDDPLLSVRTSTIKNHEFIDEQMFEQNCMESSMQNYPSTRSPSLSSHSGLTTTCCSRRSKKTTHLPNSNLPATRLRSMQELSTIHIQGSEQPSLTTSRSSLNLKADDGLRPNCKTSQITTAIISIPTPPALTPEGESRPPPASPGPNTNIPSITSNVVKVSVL

rKv4.2 = target: T2, rKv4.2 (Rattus norvegicus, UniProt Q63881); conditions: whole-cell patch clamp, HEK293T; mean ± SEM, n = 3-8; SEM; read-out: IC50 on rKv4.2 WT
T2 construct: expressed in transfected cells; host or cells: HEK293T
T2 sequence (Q63881 1-630): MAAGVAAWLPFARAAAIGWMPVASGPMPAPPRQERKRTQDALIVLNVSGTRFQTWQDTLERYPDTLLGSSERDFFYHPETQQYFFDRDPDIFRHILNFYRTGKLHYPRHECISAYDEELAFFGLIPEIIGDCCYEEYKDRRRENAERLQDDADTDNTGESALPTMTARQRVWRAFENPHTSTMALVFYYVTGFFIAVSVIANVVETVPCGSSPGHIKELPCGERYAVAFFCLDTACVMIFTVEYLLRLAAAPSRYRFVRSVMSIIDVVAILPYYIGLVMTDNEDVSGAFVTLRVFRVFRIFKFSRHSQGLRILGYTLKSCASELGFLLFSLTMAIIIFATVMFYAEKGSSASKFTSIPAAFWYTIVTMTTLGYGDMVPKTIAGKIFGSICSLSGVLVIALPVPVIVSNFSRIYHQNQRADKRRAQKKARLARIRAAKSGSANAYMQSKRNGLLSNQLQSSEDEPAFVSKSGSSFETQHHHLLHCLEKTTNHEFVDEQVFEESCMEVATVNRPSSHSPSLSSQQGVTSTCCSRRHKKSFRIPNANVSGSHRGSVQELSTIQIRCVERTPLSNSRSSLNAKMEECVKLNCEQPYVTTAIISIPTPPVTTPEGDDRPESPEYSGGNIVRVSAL

rKv4.2 T280A = target: T3, rKv4.2 T280A (Rattus norvegicus, UniProt Q63881, T280A); conditions: mean ± SEM
T3 construct: expressed in transfected cells; host or cells: HEK293T
T3 sequence (Q63881 1-630 T280A): T2 sequence (Q63881 1-630) with T280A

rKv4.2 M279A = target: T4, rKv4.2 M279A (Rattus norvegicus, UniProt Q63881, M279A); conditions: mean ± SEM
T4 construct: expressed in transfected cells; host or cells: HEK293T
T4 sequence (Q63881 1-630 M279A): T2 sequence (Q63881 1-630) with M279A

CC[C@H](C)[C@@H]1NC(=O)[C@@H]2CSSC[C@@H]3NC(=O)[C@H](C(C)C)NC(=O)[C@H](CC(C)C)NC(=O)[C@H](CC(N)=O)NC(=O)[C@@H]4CCCN4C(=O)[C@H](CCCNC(=N)N)NC(=O)[C@H](CSSC[C@H](NC(=O)[C@@H](N)CC(=O)O)C(=O)N[C@@H](CC(C)C)C(=O)NCC(=O)N[C@@H](C)C(=O)N[C@@H](Cc4ccccc4)C(=O)N[C@@H](CCCNC(=N)N)C(=O)N[C@@H](CCCCN)C(=O)N2)NC(=O)[C@H](CSSC[C@@H](C(=O)N[C@@H](CCCCN)C(=O)N[C@@H](Cc2ccc(O)cc2)C(=O)N[C@H](C(=O)N[C@@H](Cc2ccccc2)C(N)=O)C(C)C)NC(=O)[C@H](Cc2c[nH]c4ccccc24)NC(=O)[C@H](CCCNC(=N)N)NC(=O)[C@H](Cc2cnc[nH]2)NC(=O)[C@H](CC(C)C)NC(=O)[C@H](CCCNC(=N)N)NC(=O)[C@H](CO)NC3=O)NC(=O)[C@H](CCCCN)NC(=O)[C@H](CC(=O)O)NC(=O)[C@H](CC(N)=O)NC(=O)[C@H](CC(=O)O)NC(=O)[C@@H]2CCCN2C1=O [mGpTx1] (H-DCLGAFRKCIPDNDKCCRPNLVCSRLHRWCKYVF-NH2; disulfide 2-17, 9-23, 16-30)
IC50 (rKv4.3): 56 ± 4.8 nM
IC50 (rKv4.2): 81 ± 16 nM
IC50 (rKv4.2 T280A): 150 ± 32 nM
IC50 (rKv4.2 M279A): 16500 ± 9010 nM
